Non-standard residues stand in square brackets, D forms with d. d(aIle) = CC[C@H](C)[C@@H](N)C(=O)O; Nva = CCC[C@H](N)C(=O)O; Sar = CNCC(=O)O
How the values were obtained:
[1] = test system: SMS-KCNR MYCN-amplified NB cell line xenografts; assay: Neuroblastoma xenograft study, SMS-KCNR model; assay type: in vivo, athymic nude mice; conditions: SMS-KCNR xenografts about 70 mm^3, 20 days of treatment, each agent alone and in combination
Method: (§1) SMS-KCNR, NMB, and NBL-W-S MYCN amplified NB cell lines were used in this study. Cells were grown at 5% CO2 in RPMI 1640 (Invitrogen, Carlsbad, Calif.) supplemented with 10% heat-inactivated fetal bovine serum, L-Glutamine, and antibiotics.
(§2) Lyophilized peptides with the sequence: acetyl-sarcosine-glycine-valine-D-alloisoleucine-threonine-norvaline-isoleucine-arginine-proline-ethylamide were dissolved in sterile 5% dextrose and stored at 4° C.
(§3) Female 4-6 week old homozygous athymic nude mice (Harlan, Madison, Wis.) were inoculated s.c. into the right flank with ^1×107SMS-KCNR or 1.25×10^7 NMB cells. Once tumors were palpable (70 mm^3), mice were treated 1×/day for 20 days with either acetyl-sarcosine-glycine-valine-Dalloisoleucine-threonine-norvaline-isoleucine-arginine-proline-ethylamide (IP, 40 mg/kg), VPA (IP, 400 mg/kg) or acetyl-sarcosine-glycine-valine-D-alloisoleucine-threonine-norvaline-isoleucine-arginine-proline-ethylamide and VPA (in combination). In separate experiments, treatment was started after the animals developed larger tumors>380 mm^3 in size and treatment was continued for 10 days. Tumor volumes were measured twice a week and calculated using the formula: tumor volume =(length X width^2)/2(25). The Student's t-test was used to compare tumor size in the control and treatment groups. Mice were sacrificed after 20 or 10 days of treatment, respectively. […]

[2] = test system: NMB MYCN-amplified NB cell line xenografts; assay: Neuroblastoma xenograft study, NMB xenografts; assay type: in vivo, athymic nude mice; conditions: NMB xenografts about 70 mm^3, 20 days of treatment, each agent alone and in combination
Method: as §1, §2, §3

large NB xenografts = conditions: large xenografts >380 mm^3, after 10 days of treatment; peptide p<0.01, VPA p<0.001; FIG. 1C
Method: as §1, §2, §3

Compound	tumor growth (result in words) [1]	tumor growth (result in words) [2]	tumor volumes reduced (large NB xenografts) [%]
CCCC(CCC)C(=O)O [VPA, valproic acid]	Tumor growth was inhibited	Tumor growth was inhibited	44
Ac-[Sar]GV[d(aIle)]T[Nva]IRP-NHEt	Tumor growth was inhibited	Tumor growth was inhibited	33

Source: patent US20080004222A1, “Antitumorigenic Drug Combination” (priority 2006, published 2008)
